Columns and labels:
Estrogen receptor beta = Estrogen receptor beta (Homo sapiens, UniProt Q92731); conditions: sf9; also: in other assays of this panel Not Active means under 50% inhibition at 10 µM
[1] = target: T1, Angiotensin-converting enzyme (Oryctolagus cuniculus, UniProt P12822); type: tissue-based, Lung;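 also: enzymatic inhibition of angiotensin-converting enzyme measured with FAPGG as the substrate; in other assays of this panel Not Active means under 50% inhibition at 10 µM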
T1 sequence (P12822 whole entry): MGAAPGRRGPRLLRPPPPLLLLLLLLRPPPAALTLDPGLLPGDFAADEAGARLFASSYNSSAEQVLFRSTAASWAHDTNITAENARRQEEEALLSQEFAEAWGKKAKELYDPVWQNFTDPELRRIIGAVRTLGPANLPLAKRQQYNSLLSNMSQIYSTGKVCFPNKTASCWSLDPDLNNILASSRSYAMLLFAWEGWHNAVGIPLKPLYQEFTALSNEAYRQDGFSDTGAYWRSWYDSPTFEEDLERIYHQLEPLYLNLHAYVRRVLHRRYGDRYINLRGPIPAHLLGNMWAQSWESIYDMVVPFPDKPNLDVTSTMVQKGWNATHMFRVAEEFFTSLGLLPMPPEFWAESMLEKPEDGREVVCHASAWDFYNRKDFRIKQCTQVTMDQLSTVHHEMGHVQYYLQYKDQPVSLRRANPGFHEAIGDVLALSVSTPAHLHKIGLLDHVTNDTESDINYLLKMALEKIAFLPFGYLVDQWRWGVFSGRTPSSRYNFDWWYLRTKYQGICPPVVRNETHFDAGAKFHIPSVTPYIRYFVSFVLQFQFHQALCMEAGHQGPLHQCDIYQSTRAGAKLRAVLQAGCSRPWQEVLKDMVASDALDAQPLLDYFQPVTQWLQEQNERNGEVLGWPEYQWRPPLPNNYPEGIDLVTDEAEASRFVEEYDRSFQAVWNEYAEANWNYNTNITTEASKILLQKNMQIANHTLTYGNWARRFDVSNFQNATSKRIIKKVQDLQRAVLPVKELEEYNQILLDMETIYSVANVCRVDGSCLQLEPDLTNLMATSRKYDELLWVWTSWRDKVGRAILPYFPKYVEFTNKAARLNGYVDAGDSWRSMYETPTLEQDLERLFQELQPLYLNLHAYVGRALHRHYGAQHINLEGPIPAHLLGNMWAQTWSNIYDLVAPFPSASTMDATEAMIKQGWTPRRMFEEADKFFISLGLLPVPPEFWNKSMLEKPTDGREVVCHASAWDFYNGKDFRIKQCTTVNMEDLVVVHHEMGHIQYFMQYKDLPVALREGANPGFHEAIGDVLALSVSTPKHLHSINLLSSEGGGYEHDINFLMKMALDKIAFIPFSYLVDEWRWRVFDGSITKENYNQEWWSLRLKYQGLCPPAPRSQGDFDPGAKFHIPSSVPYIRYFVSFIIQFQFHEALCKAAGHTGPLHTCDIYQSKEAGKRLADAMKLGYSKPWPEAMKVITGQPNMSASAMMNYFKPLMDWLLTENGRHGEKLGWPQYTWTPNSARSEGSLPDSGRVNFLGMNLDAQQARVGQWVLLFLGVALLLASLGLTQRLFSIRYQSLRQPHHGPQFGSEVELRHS

[2] = target: Delta-type opioid receptor (Homo sapiens, UniProt P41143); type: cell membranes, HEK293, Membrane; conditions: hek293; also: in other assays of this panel Not Active means under 50% inhibition at 10 µM
Chain of Delta-type opioid receptor (P41143 whole entry): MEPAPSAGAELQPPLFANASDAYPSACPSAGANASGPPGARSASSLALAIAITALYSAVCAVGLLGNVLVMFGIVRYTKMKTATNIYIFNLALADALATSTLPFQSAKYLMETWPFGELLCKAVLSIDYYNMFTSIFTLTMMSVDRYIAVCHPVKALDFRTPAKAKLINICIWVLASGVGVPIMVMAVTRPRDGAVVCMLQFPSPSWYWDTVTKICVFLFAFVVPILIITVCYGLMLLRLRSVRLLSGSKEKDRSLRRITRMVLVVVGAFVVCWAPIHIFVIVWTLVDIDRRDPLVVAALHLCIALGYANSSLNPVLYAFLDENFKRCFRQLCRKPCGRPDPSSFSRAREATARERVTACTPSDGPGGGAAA

[3] = DRUGMATRIX: Leukotriene, BLT (LTB4) radioligand binding (ligand: [3H]LTB4); type: cell membranes, Membrane; conditions: u-937, Not Active = under 50% inhibition at 10 µM
Cytochrome P450 3A4 = Cytochrome P450 3A4 (Homo sapiens, UniProt P08684); conditions: bti-tn-5b1-4; also: in other assays of this panel Not Active means under 50% inhibition at 10 µM
Chain of Cytochrome P450 3A4 (P08684 whole entry): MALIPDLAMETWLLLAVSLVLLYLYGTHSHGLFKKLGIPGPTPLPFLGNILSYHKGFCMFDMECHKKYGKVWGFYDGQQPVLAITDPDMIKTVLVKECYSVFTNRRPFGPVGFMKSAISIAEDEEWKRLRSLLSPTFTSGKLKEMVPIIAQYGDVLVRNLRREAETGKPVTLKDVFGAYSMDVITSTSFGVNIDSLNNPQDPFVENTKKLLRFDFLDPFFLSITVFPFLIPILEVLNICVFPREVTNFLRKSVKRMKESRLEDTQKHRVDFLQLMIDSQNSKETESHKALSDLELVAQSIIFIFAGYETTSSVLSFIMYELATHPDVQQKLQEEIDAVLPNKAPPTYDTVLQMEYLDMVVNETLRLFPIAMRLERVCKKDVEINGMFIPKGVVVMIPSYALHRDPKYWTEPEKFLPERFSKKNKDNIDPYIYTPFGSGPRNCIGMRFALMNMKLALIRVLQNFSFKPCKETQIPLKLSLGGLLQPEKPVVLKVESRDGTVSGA

[4] = DRUGMATRIX: Glutamate, NMDA, Phencyclidine radioligand binding (ligand: [3H] TCP); type: cell membranes, Rattus norvegicus, Wistar, Cerebral cortex, Membrane; conditions: Not Active = under 50% inhibition at 10 µM
[5] = DRUGMATRIX: Serotonin (5-Hydroxytryptamine) 5-HT3 radioligand binding (ligand: [3H] GR-65630); type: cell membranes, Membrane; conditions: hek293; Not Active = under 50% inhibition at 10 µM

Chain of Estrogen receptor beta (Q92731 whole entry): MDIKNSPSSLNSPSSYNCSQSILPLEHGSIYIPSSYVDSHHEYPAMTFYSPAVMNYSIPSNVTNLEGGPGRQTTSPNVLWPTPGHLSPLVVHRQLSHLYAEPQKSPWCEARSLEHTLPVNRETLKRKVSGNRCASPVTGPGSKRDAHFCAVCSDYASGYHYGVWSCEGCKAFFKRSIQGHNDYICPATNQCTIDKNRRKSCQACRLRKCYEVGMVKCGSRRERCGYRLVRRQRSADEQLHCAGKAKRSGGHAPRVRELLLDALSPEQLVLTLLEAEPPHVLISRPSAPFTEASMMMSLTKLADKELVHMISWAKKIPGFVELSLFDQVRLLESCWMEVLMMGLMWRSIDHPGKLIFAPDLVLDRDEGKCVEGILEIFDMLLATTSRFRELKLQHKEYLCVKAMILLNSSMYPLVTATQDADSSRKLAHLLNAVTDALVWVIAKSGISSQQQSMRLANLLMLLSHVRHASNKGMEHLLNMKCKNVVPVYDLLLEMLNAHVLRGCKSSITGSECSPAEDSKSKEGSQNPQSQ

Row | Molecule | IC50 (Estrogen receptor beta) | IC50 [1] | IC50 [2] | IC50 [3] | Ki [3] | IC50 (Cytochrome P450 3A4) | Ki (Cytochrome P450 3A4) | IC50 [4] | Ki [4] | IC50 [5] | Ki [5] | IC50 ([3]; read-out: IC50) | Ki ([3]; read-out: Ki) | Ki (Estrogen receptor beta) | Ki [1] | Ki [2]
1 | CN1CCC(=C2c3ccccc3CC(=O)c3sccc32)CC1 [KETOTIFEN] | Not Active | Not Active | Not Active | Not Active | Not Active | Not Active | Not Active | Not Active | Not Active | Not Active | Not Active | – | – | – | – | –
2 | CN1CCCC(CN2c3ccccc3Sc3ccccc32)C1 (configuration not stated) [MEPAZINE] | Not Active | Not Active | Not Active | Not Active | Not Active | Not Active | Not Active | Not Active | Not Active | Not Active | Not Active | – | – | – | – | –
3 | Cc1cccc(C)c1NC(=O)C1CCCCN1C (configuration not stated) [MEPIVACAINE] | Not Active | Not Active | Not Active | Not Active | Not Active | Not Active | Not Active | Not Active | Not Active | Not Active | Not Active | – | – | – | – | –
4 | CC(C)(C)NCC(O)COc1cccc2c1CC(O)C(O)C2 (configuration not stated) [NADOLOL] | Not Active | Not Active | Not Active | Not Active | Not Active | Not Active | Not Active | Not Active | Not Active | Not Active | Not Active | – | – | – | – | –
5 | C[C@]12CC[C@H]3[C@@H](CCC4=CC(=O)CC[C@@H]43)[C@@H]1CC[C@@H]2O [NANDROLONE] | Not Active | Not Active | Not Active | Not Active | Not Active | Not Active | Not Active | Not Active | Not Active | Not Active | Not Active | – | – | – | – | –
6 | NC(=O)c1cccnc1 [NIACINAMIDE] | Not Active | Not Active | Not Active | Not Active | Not Active | Not Active | Not Active | Not Active | Not Active | Not Active | Not Active | – | – | – | – | –
7 | CS(=O)(=O)Nc1ccc([N+](=O)[O-])cc1Oc1ccccc1 [NIMESULIDE] | Not Active | Not Active | Not Active | Not Active | Not Active | Not Active | Not Active | Not Active | Not Active | Not Active | Not Active | – | – | – | – | –
8 | C[C@@H]1O[C@@H](O[C@H]2C[C@@H](O)[C@]3(CO)[C@H]4[C@H](O)C[C@]5(C)[C@@H](C6=CC(=O)OC6)CC[C@]5(O)[C@@H]4CC[C@]3(O)C2)[C@H](O)[C@H](O)[C@H]1O [OUABAIN] | Not Active | Not Active | Not Active | Not Active | Not Active | Not Active | Not Active | Not Active | Not Active | Not Active | Not Active | – | – | – | – | –
9 | NC(=O)N1c2ccccc2CC(=O)c2ccccc21 [OXCARBAZEPINE] | Not Active | Not Active | Not Active | Not Active | Not Active | Not Active | Not Active | Not Active | Not Active | Not Active | Not Active | – | – | – | – | –
10 | COc1ccnc(C[S+]([O-])c2nc3ccc(OC(F)F)cc3[nH]2)c1OC (configuration not stated) [PANTOPRAZOLE] | Not Active | Not Active | Not Active | Not Active | Not Active | Not Active | Not Active | Not Active | Not Active | Not Active | Not Active | – | – | – | – | –
11 | CCc1ccc(CCOc2ccc(CC3SC(=O)NC3=O)cc2)nc1 (configuration not stated) [PIOGLITAZONE] | Not Active | Not Active | Not Active | – | – | Not Active | Not Active | Not Active | Not Active | Not Active | Not Active | 86.9 µM | 22.1 µM | – | – | –
12 | CCN(CC)CCNC(=O)c1ccc(N)cc1 [PROCAINAMIDE] | Not Active | Not Active | Not Active | Not Active | Not Active | Not Active | Not Active | Not Active | Not Active | Not Active | Not Active | – | – | – | – | –
13 | CCN(CC)CCCC(C)Nc1c2ccc(Cl)cc2nc2ccc(OC)cc12 (configuration not stated) [QUINACRINE] | Not Active | Not Active | Not Active | Not Active | Not Active | Not Active | Not Active | Not Active | Not Active | Not Active | Not Active | – | – | – | – | –
14 | CC[C@]1(O)C[C@@H]2CN(CCc3c([nH]c4ccccc34)[C@@](C(=O)OC)(c3cc4c(cc3OC)N(C)[C@H]3[C@@](O)(C(N)=O)[C@H](O)[C@]5(CC)C=CCN6CC[C@]43[C@@H]65)C2)C1 [VINDESINE] | Not Active | Not Active | Not Active | Not Active | Not Active | Not Active | Not Active | Not Active | Not Active | Not Active | Not Active | – | – | – | – | –
15 | COBALTOUS CHLORIDE | Not Active | Not Active | Not Active | Not Active | Not Active | Not Active | Not Active | Not Active | Not Active | Not Active | Not Active | – | – | Not Active | Not Active | Not Active
16 | COLISTIN | Not Active | Not Active | Not Active | Not Active | Not Active | Not Active | Not Active | Not Active | Not Active | Not Active | Not Active | – | – | Not Active | Not Active | Not Active
